Data published in patent US9028845B2, “Chimeric immunomodulatory compounds and methods of using the same-IV” (Dynavax Technologies Corporation, priority 2001, dated 2015).
Strand notation (5' to 3'): a small letter for the sugar, then the base; units joined by * are phosphorothioate-linked, units joined directly phosphodiester-linked; [ ] holds rarer units or linkages, { } end groups; capitals alone tell only the bases. d = 2'-deoxy (DNA)

System: human PBMCs
Assay: Human PBMC cytokine response assay (IFN-γ and IFN-α in cell-free medium by ELISA), with or without cPLGA;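 for IFN-α (pg/ml) mean: 20 µg/mL compound for 24 hours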;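 for IFN-γ (pg/ml) mean: 20 µg/mL compound for 24 hours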
Format: cell-based
[1] = Table 24, mean of donors 28234-28237
[2] = Table 25, mean of donors 28250-28253
[3] = donor 28066, 20 ug/ml, 24 h, + PLGA = premixed with 100 μg/ml cPLGA
[4] = donor 28067, 20 ug/ml, 24 h, + PLGA = premixed with 100 μg/ml cPLGA
[5] = donor 28068, 20 ug/ml, 24 h, + PLGA = premixed with 100 μg/ml cPLGA
[6] = mean of Donors 1-2, 20 μg/ml, 24 h
[7] = mean of Donors 3-4, 20 μg/ml, 24 h
[8] = mean of Donors 5-6, 20 μg/ml (mixtures: 20 μg/ml total), 24 h
[9] = mean of Donors 7-8, 20 μg/ml, 24 h
[10] = mean of Donors 9-12, 20 μg/ml, 24 h
[11] = mean of donors 110, 112, 119, 120, Table 14
[12] = mean of donors 28057-28060, Table 16
[13] = mean of donors 28065-28068, 20 ug/ml, 24 h, + PLGA = premixed with 100 μg/ml cPLGA
[14] = mean of donors 28185-28188, Table 15
[15] = mean of donors 28218-28221, 20 μg/ml, 24 h

## 5′-TGACTGTGAACCTTAGAGATGA-3′ (SEQ ID NO: 3) (dT*dG*dA*dC*dT*dG*dT*dG*dA*dA*dC*dC*dT*dT*dA*dG*dA*dG*dA*dT*dG*dA) [Compound P-7, negative control, reference compound]
Table 11, donor 28044
  IFN-γ: 48 pg/mL
Table 11, donor 28045
  IFN-α: 54 pg/mL
  IFN-γ: 35 pg/mL
Table 11, mean of donors
  IFN-α mean: 15 pg/mL
  IFN-γ mean: 34 pg/mL
Table 24, donor 28234
  IFN-α: 62 pg/mL
  IFN-γ: 13 pg/mL
Table 24, donor 28235
  IFN-α: 16 pg/mL
  IFN-γ: 4 pg/mL
Table 24, donor 28236
  IFN-α: 16 pg/mL
  IFN-γ: 7 pg/mL
Table 24, donor 28237
  IFN-α: 16 pg/mL
  IFN-γ: 4 pg/mL
[1]
  IFN-α mean: 28 pg/mL
  IFN-γ mean: 7 pg/mL
Table 25, donor 28250
  IFN-a: 16 pg/mL
Table 25, donor 28250, polynucleotides/spacers at amounts equivalent to the CIC, spacers alone 9 uM
  IFN-g: 104 pg/mL
Table 25, donor 28251
  IFN-a: 16 pg/mL
  IFN-g: 1 pg/mL
Table 25, donor 28252
  IFN-a: 16 pg/mL
  IFN-g: 39 pg/mL
Table 25, donor 28253
  IFN-a: 16 pg/mL
  IFN-g: 1 pg/mL
[2]
  IFN-a mean: 16 pg/mL
  IFN-g mean: 36 pg/mL
Donor 110, Table 14
  IFN-α: 2 pg/mL
  IFN-γ: 124 pg/mL
Donor 112, Table 14
  IFN-α: 32 pg/mL
  IFN-γ: 24 pg/mL
Donor 119, Table 14
  IFN-α: 474 pg/mL
  IFN-γ: 16 pg/mL
Donor 120, Table 14
  IFN-α: 2 pg/mL
  IFN-γ: 40 pg/mL
Donor 28057, Table 16
  IFN-α: 0 pg/mL
  IFN-γ: 1 pg/mL
Donor 28058, Table 16
  IFN-α: 0 pg/mL
  IFN-γ: 2 pg/mL
Donor 28059, Table 16
  IFN-α: 0 pg/mL
  IFN-γ: 3 pg/mL
Donor 28060, Table 16
  IFN-α: 0 pg/mL
  IFN-γ: 4 pg/mL
Donor 28065 (high background), 20 ug/ml, 24 h, + PLGA = premixed with 100 μg/ml cPLGA, 1000 = outside assay limits
  IFN-γ (pg/ml) 28065: 397 pg/mL
Donor 28065, 20 ug/ml, 24 h, + PLGA = premixed with 100 μg/ml cPLGA
  IFN-α (pg/ml) 28065: 0 pg/mL
[3]
  IFN-α (pg/ml) 28066: 8 pg/mL
  IFN-γ (pg/ml) 28066: 1 pg/mL
[4]
  IFN-α (pg/ml) 28067: 0 pg/mL
  IFN-γ (pg/ml) 28067: 8 pg/mL
[5]
  IFN-α (pg/ml) 28068: 3 pg/mL
  IFN-γ (pg/ml) 28068: 15 pg/mL
Donor 28185, Table 15
  IFN-a: 4 pg/mL
  IFN-g: 0 pg/mL
Donor 28186, Table 15
  IFN-a: 25 pg/mL
  IFN-g: 4 pg/mL
Donor 28187, Table 15
  IFN-a: 5 pg/mL
  IFN-g: 19 pg/mL
Donor 28188, Table 15
  IFN-a: 31 pg/mL
  IFN-g: 2 pg/mL
Donor 28218, 20 μg/ml, 24 h
  IFN-a (pg/ml) 28218: 32 pg/mL
  IFN-g (pg/ml) 28218: 5 pg/mL
Donor 28219, 20 μg/ml, 24 h
  IFN-a (pg/ml) 28219: 32 pg/mL
  IFN-g (pg/ml) 28219: 5 pg/mL
Donor 28220, 20 μg/ml, 24 h
  IFN-a (pg/ml) 28220: 32 pg/mL
  IFN-g (pg/ml) 28220: 5 pg/mL
Donor 28221, 20 μg/ml, 24 h
  IFN-a (pg/ml) 28221: 32 pg/mL
  IFN-g (pg/ml) 28221: 5 pg/mL
[6]
  IFN-α (pg/ml) mean: 0 pg/mL
  IFN-γ (pg/ml) mean: 231 pg/mL
[7]
  IFN-α (pg/ml) mean: 15 pg/mL
  IFN-γ (pg/ml) mean: 5 pg/mL
[8]
  IFN-α (pg/ml) mean: 57 pg/mL
  IFN-γ (pg/ml) mean: 37 pg/mL
[9]
  IFN-α (pg/ml) mean: 0 pg/mL
  IFN-γ (pg/ml) mean: 2 pg/mL
[10]
  IFN-α mean: 2
  IFN-γ mean: 3
[11]
  IFN-α (pg/ml) mean: 128 pg/mL
  IFN-γ (pg/ml) mean: 51 pg/mL
[12]
  IFN-α (pg/ml) mean: 0 pg/mL
  IFN-γ (pg/ml) mean: 2 pg/mL
[13]
  IFN-α (pg/ml) mean: 3 pg/mL
  IFN-γ (pg/ml) mean: 105 pg/mL
[14]
  IFN-a (pg/ml) mean: 16 pg/mL
  IFN-g (pg/ml) mean: 6 pg/mL
[15]
  IFN-a (pg/ml) mean: 32 pg/mL
  IFN-g (pg/ml) mean: 5 pg/mL
Mean ×2, Table 15
  IFN-a (pg/ml) ×2: 32 pg/mL
Mean ×4, Table 15
  IFN-g (pg/ml) ×4: 25 pg/mL
Used alone (no cPLGA)
  immunomodulatory activity (IFN-γ / IFN-α secretion), in words: no activity
